Columns and labels:
[1] = tested on: cells of the reticulo-endothelial system; conditions: cited from earlier work
[2] = tested on: mice liver cytochrome P-450 system; assay: Indices of activity of mice liver cytochrome P-450 system after GMDP injections; format: in vivo
Experimental: The experiments were performed on white male mice with a mass of […]. GMDP was dissolved in isotonic solution of sodium chloride and administered by means of intraperitoneal injection once a day for 3 days, with a dose of 20 mg/kg. A corresponding volume of the solvent was administered to control animals. Each group (test and control) consisted of 8 to 10 mice. Twenty-four hours after the last injection of the substances under test (test) and the solvent (control), the animals were killed, the liver was removed and its weight was determined. This was followed by the isolation of the microsomal fraction by means of differential centrifugation. The quality protein in it was determined according to the method of Lowry et al (Lowry et al, J. Biol. Chem., 193, 265-275 (1951)). Bovine serum albumin was used in the construction of calibrating plot. The content of cytochrome P450 and B5 in the liver microsomal fraction was determined by spectrophotometric method with the help of a `Hitachi-556` spectrophotometer. The rate of oxidation of aniline (p-hydroxylation) in microsomes in the presence of NADPH was determined spectrophotometrically on the basis of p-aminophenol which has formed already. The rate of oxidation of benzo(a)pyrene (BP) in liver microsomes was determined according to the intensity of fluorescence of the forming 3-oxibenzo (a) pyrene `Baird Nova` fluorimeter. The rate of hydroxylation of aniline and BP in microsomes was expressed in nmol of metabolites/nmol of cytochrome P450 per 1 minute, or in nmol of metabolites/mg of microsome protein per 1 minute. Statistical processing of the obtained data was performed with the use of Student's t-test.

[3] = tested on: liver microsomal cytochrome P450; assay: Optical difference spectrum with liver microsomal cytochrome P450; format: binding; conditions: oxidised microsomes from phenobarbital-induced rat liver
Source text: The cytochrome P450 system is a system by means of which toxins are metabolised in the liver. A wide variety of substances combine with oxidised liver microsomal cytochrome P450 bringing about a change in absorbency. It has been shown that various drugs, substrates and inhibitors react with microsomal cytochrome P450 to give three characteristic types of spectral change.
The three types of spectral changes are as follows.
i) For substances such as ethylmorphine or hexobarbital, the minimum difference in the spectrum occurs at about 420 nm and the maximum at about 385-390 nm. These substances are designated type I compounds).
ii) For compounds such as aniline or nicotinamide, the minimum difference in the spectrum occurs at about 390-410 nm and the maximum at about 430 nm. These substances are designated type II compounds.
iii) Some compounds are apparently type II substrates but actually act by displacing endogenous type I substrates when added to microsomes. These compounds are designated reverse type I substrates.
It has been shown that, for a number of substrates, the apparent binding constants calculated from spectral changes are related to the actual binding of type I substrates at the active site.
Ks (spectral association constant) was 0.1 mM. This is Ks for the well known cytochrome P450 HEXENAL™.

outbred white mice = assay: Duration of ethanol narcosis in outbred white mice; format: in vivo; conditions: GMDP at least 0.01 mg/kg IP, three daily injections; ethanol 4.5 g/kg IP; vs control
Source text: (§1) Outbred white mice were given three intraperitoneal injections of GMDP at daily intervals and challenged with ethanol (4.5 g/kg IP) after the last GMDP injection. Narcosis was defined as the time in the lateral position ("leglessness"). […] Each group contained 10 to 12 mice.
In this example, the influence of GMDPA and various GMDP or GMDPA analogues on ethanol narcosis was studied. The procedure of Example 1 was followed, except that instead of the GMDP, one of the following compounds was administered IP at 1 mg/kg daily for three days: […]

Pyrogenicity = assay: Pyrogenicity
Source text: Pyrogenicity is a problem which has caused difficulties for the exploitation of certain muramyl dipeptides. Pyrogenicity may be attenuated by appropriate formulations (see, for example, the liposomal formulations of U.S. Pat. Nos. 4,522,811 and 4,684,625), but in general it will be preferable to choose, for use in the present invention, a muramyl dipeptide which has low intrinsic pyrogenicity. […] Such an analogue is available, and is N-acetyl-glucosaminyl-N-acetyl-muramyl-L-alanyl-D-glutamic acid (GMDP-A), which is Compound III in U.S. Pat. No. 4,395,399, and whose structure is as follows: [drawing 5]

mice [4] = assay: Duration of HEXENAL (hexobarbital) narcosis in mice, oral GMDP; format: in vivo; conditions: for Effect % (M ± m): vs control
Experimental: This example studies the effect of GMDP on the duration of narcosis induced by hexobarbital.
GMDP was administered orally to mice 15 minutes before the intraperitoneal injection of hexobarbital (HEXENAL™) at 50 mg/kg. The duration of narcosis (preservation of the lateral position) was recorded.

mice [5] = assay: Acute toxicity, LD50 test in mice; format: in vivo
Source text: This compound (Compound II in U.S. Pat. No. 4,395,399), also known as glycopin, has already undergone preclinical toxicity testing and pharmacokinetic investigations required for licensing for clinical use in the USSR. The acute toxicity in mice, measured by the LD50 test is 7 g/kg.

C57BL/6 mice = assay: Duration of hexenal narcosis in C57BL/6 mice; format: in vivo
Source text: Cytochrome P450 -dependent monooxygenase activity induction in accordance with pharmacological testing of HEXENAL™ narcosis duration in mice.
In addition to the experiments, which have shown GMDP ability to interact directly with cytochrome P450 molecule as a substrate (in vitro) and to induce cytochrome P450 system in liver microsomes (GMDP effect in vivo), experiments for testing cytochrome P450 system according to the duration of HEXENAL™ narcosis in mice have been carried out. It is well known that HEXENAL™ is a substrate of cytochrome P450, and the duration of its narcotic effect clearly correlates with the rate of its oxidation in the liver cytochrome P450 system. The method of Example 6 was repeated, but instead of aniline and benzo(a)pyrene, the ability of the microsomes to metabolise HEXENAL™ was tested. The experiments performed have shown that GMDP in small doses is capable of inducing cytochrome P450 -dependent oxidation of HEXENAL™ (Tables 3 and 4).

Water solubility = format: physicochemical
Source text: GMDP also has the particular advantage, shared with the other glucosaminyl-muramyl peptides of U.S. Pat. No. 4,395,399, of being water soluble: this is a real benefit for parenteral administration. The choice of this muramyl dipeptide which in many ways is contrary to the trend in the art. Both muroctasin and MTP-PE have been specifically synthesised to incorporate a lipophilic group, and many non-lipophile-substituted muramyl dipeptides have been formulated in lipophilic preparations such as liposomes (as in U.S. Pat. No. 4,522,811 and U.S. Pat. No. 4,684,625), purportedly to enhance the activity of the muramyl dipeptide. In the present invention, water solubility is preferred.

[6] = Placebo-controlled trial in colorectal surgery patients, blood bilirubin; format: in vivo, human; conditions: GMDP 1, 2 or 3 mg per day for 10 days
Source text: Over 200 patients were enrolled in a placebo-controlled trial to determine the effect of GMDP on the outcome of colorectal surgery. Many of these patients had undergone previous chemotherapy for the treatment of cancers, often over substantial periods of time, with the result that liver damage had occurred.
This was evidenced by such indicators as elevated bilirubin in their blood, resulting from the reduced ability of the liver to function as a detoxification organ. […] GMDP or placebo were administered for 10 days, and bilirubin levels in the blood were measured before and after the course of treatment. Bilirubin data were obtained from 182 of the subjects. It is clear that the average blood level of bilirubin decreased in the GMDP-treated group and the two asterisks indicate that this decrease was statistically highly significant (p=0.002). […] Blood levels of bilirubin before the trial were not different in the two groups.

outbred mice = assay: Duration of acetaldehyde narcosis in outbred mice; format: in vivo; conditions: GMDP IP, three daily injections; acetaldehyde 450 mg/kg IP
Experimental: as §1
The procedure of Example 1 was followed but modified to study the duration of acetaldehyde narcosis. Acetaldehyde, at 450 mg/kg was administered IP after the last GMDP dose, instead of the ethanol.

inbred C57 B1/6 mice = assay: Acetaldehyde narcosis in inbred C57 B1/6 mice; format: in vivo; conditions: GMDPA IP daily for three days
Experimental: as §1
This example studies the influence of GMDPA on acetaldehyde narcosis in inbred C57 B1/6 mice. The procedure of Example 1 was generally followed except that GMDPA was injected IP daily for three days and acetaldehyde was given 1, 4, 8 or 12 days later.

[7] = 24 hours after GMDP 20 mg/kg × 3 days i.p.
[8] = GMDP relative to control, 20 mg/kg × 3 days
[9] = liver microsomes, 24 hours after GMDP 20 mg/kg × 3 days i.p.
[10] = GMDP 0.01 mg/kg orally 15 min before hexobarbital 50 mg/kg i.p.
[11] = GMDP 0.1 mg/kg orally 15 min before hexobarbital 50 mg/kg i.p.
[12] = GMDP 1.0 mg/kg orally 15 min before hexobarbital 50 mg/kg i.p.
[13] = GMDP 0.01 mg/kg × 3 days i.p, hexenal 50 mg/kg 24 hours after GMDP injections
[14] = GMDP i.p injection simultaneously with hexenal injection, 50 mg/kg
[15] = GMDP i.p. injection 10 min after hexenal injection, 50 mg/kg
[16] = GMDP i.p. injection 30 min before hexenal injection, 50 mg/kg
[17] = GMDP i.p. injection 60 min before hexenal injection, 50 mg/kg
[18] = GMDP per os 15 min before i.p injection of hexenal 50 mg/kg

CC(=O)N[C@H]1[C@H](O[C@H]2[C@H](O[C@H](C)C(=O)N[C@@H](C)C(=O)N[C@H](CCC(=O)O)C(N)=O)[C@@H](NC(C)=O)C(O)O[C@@H]2CO)O[C@H](CO)[C@@H](O)[C@@H]1O (stereo partly drawn) [GMDP, N-acetyl-glucosaminyl-N-acetyl-muramyl-L-alanyl-D-isoglutamine]
synthesis of the superoxide anion (O2^-) [1]: stimulates the synthesis of the superoxide anion | Liver weight mg/g of the animal weight [2, 7]: 80.0 mg/g of the animal weight | Microsomal protein mg/g of liver weight [2, 7]: 5.8 ± 0.31 mg/g of liver weight | Aniline-hydroxylase (per mg of protein), % [2, 8]: 194% | Aniline-hydroxylase (per nmol of cyt. P-450), % [2, 8]: 178% | BP-hydroxylase (per mg of protein), % [2, 8]: 171% | BP-hydroxylase (per nmol of cyt P-450), % [2, 8]: 218% | Cytochrome P-450, % [2, 8]: 134% | Microsomal protein, % [2, 8]: 129% | Cytochrome P-450 nmol/mg of protein ([2]; liver microsomal fraction, 24 hours after GMDP 20 mg/kg × 3 days i.p.): 0.87 ± 0.06 nmol/mg of protein | Aniline-hydroxylase nmol/mg of protein per 1 minute [2, 9]: 1.20 ± 0.1 nmol/mg of protein per 1 minut | Aniline-hydroxylase nmol/nmol of cyt. P-450 per 1 minute [2, 9]: 1.05 ± 0.01 nmol/nmol of cyt. P-450 per 1 | BP-hydroxylase nmol/mg of protein per 1 minute [2, 9]: 0.6 ± 0.04 nmol/mg of protein per 1 minut | BP-hydroxylase nmol/nmol of cyt P-450 per 1 minute [2, 9]: 0.87 ± 0.09 nmol/nmol of cyt P-450 per 1 m | Ks (spectral association constant) [3]: 0.1 mM | type of optical difference spectrum [3]: type I optical difference spectrum | duration of ethanol narcosis (outbred white mice): much shorter duration | pyrogenicity (Pyrogenicity): sufficiently low not to have prevented its clinical evaluation | Narcosis duration Min (M ± m) (mice [4]; [10]): 15.48 ± 4.93 min | Effect % (M ± m) (mice [4]; [10]): -74.01 ± 8.15% | Narcosis duration Min (M ± m) (mice [4]; [11]): 8.72 ± 2.98 min | Effect % (M ± m) (mice [4]; [11]): -85.59 ± 4.92% | Narcosis duration Min (M ± m) (mice [4]; [12]): 18.47 ± 4.82 min | Effect % (M ± m) (mice [4]; [12]): -69.47 ± 7.96% | shortening of the duration of hexobarbital-induced narcosis (mice [4]; average over all the doses investigated): ~4 fold | acute toxicity in mice, LD50 (mice [5]): 7000 mg/kg | Narcosis duration min. (M ± m) (C57BL/6 mice; [13]): 21.7 ± 5.2 min | Narcotic effect in % from control (C57BL/6 mice; [13]): 45% | Narcosis duration min. (M ± m) (C57BL/6 mice; [14]): 25.7 ± 4.9 min | Narcotic effect in % from control (C57BL/6 mice; [14]): 85% | Narcosis duration min. (M ± m) (C57BL/6 mice; [15]): 41.2 ± 3.3 min | Narcotic effect in % from control (C57BL/6 mice; [15]): 95% | Narcosis duration min. (M ± m) (C57BL/6 mice; [16]): 18.4 ± 1.5 min | Narcotic effect in % from control (C57BL/6 mice; [16]): 61% | Narcosis duration min. (M ± m) (C57BL/6 mice; [17]): 30.9 ± 5.7 min | Narcotic effect in % from control (C57BL/6 mice; [17]): 100% | Narcosis duration min. (M ± m) (C57BL/6 mice; [18]): 31.3 ± 4.9 min | Narcotic effect in % from control (C57BL/6 mice; [18]): 57% | water solubility (Water solubility): water soluble | blood level of bilirubin after treatment vs placebo [6]: significantly different from bilirubin levels after placebo treatment | average blood level of bilirubin, after vs before treatment ([6]; p=0.002): decreased | duration of acetaldehyde narcosis (outbred mice): markedly shortened the duration of narcosis

N-acetyl-glucosaminyl-N-acetyl-muramyl-L-alanyl-D-glutamic acid [GMDPA]
pyrogenicity (Pyrogenicity): substantially non-pyrogenic | inhibition of acetaldehyde narcosis (inbred C57 B1/6 mice; acetaldehyde given 1, 4 or 8 days later): inhibition of narcosis occurred | inhibition of acetaldehyde narcosis (inbred C57 B1/6 mice; acetaldehyde given 12 days later): not 12
